According to ChEMBL document CHEMBL3885861, “Open TG-GATES”:

Species: Rattus norvegicus
Assay: Open TG-GATES - Regimen: Daily Repeat
Format: toxicity, organism-based, Sprague-Dawley
Parameters: regimen Daily Repeat, gender Male, age 6 weeks
Settings: in vivo, po, 2 mg/kg, route gavage, dose level Middle; for APTT / Bas / Eos / Fbg / Hb / Ht / Lym / MCH / MCHC / MCV / Mono / Neu / PT / Plat / RBC / Ret / WBC: tissue Blood; for KIDNEY_L / KIDNEY_R / KIDNEY_TOTAL: tissue Kidney; for LIVER: tissue Liver; for A/G / ALP / ALT / AST / BUN / CRE / Ca / Cl / DBIL / GLC / IP / K / LDH / Na / PL / RALB / TBIL / TC / TG / TP / gamma-GTP: tissue Plasma

`O=NN(CCCl)C(=O)NC1CCCCC1` [LOMUSTINE] gave a TERMINAL_BW (72 h, time 3 day) of 220 g, an APTT (72 h, time 3 day) of 16.8 s and a Bas (72 h, time 3 day) of 0%. The Eos (72 h, time 3 day) was 0.8%, the Fbg (72 h, time 3 day) was 231.8 mg/dL and the Hb (72 h, time 3 day) was 13.3 g/dL. It also gave a Ht (72 h, time 3 day) of 39.9%, a Lym (72 h, time 3 day) of 82.4% and an MCH (72 h, time 3 day) of 21.1 pg. For the same compound, the MCHC (72 h, time 3 day) was 33.2%, the MCV (72 h, time 3 day) was 63.7 fL and the Mono (72 h, time 3 day) was 7.4%. The Neu (72 h, time 3 day) was 9.6%, the PT (72 h, time 3 day) was 11.7 s and the Plat (72 h, time 3 day) was 108 x10_4/uL. It also gave an RBC (72 h, time 3 day) of 628 x10_4/ul, a Ret (72 h, time 3 day) of 6.9% and a WBC (72 h, time 3 day) of 109.9 x10_2/uL. The KIDNEY_L (72 h, time 3 day) was 1 g, the KIDNEY_R (72 h, time 3 day) was 1 g and the KIDNEY_TOTAL (72 h, time 3 day) was 2 g. The LIVER (72 h, time 3 day) was 11.4 g, the A/G (72 h, time 3 day) was 2 and the ALP (72 h, time 3 day) was 962.6 IU/L. The ALT (72 h, time 3 day) was 29.8 IU/L, the AST (72 h, time 3 day) was 59.4 IU/L and the BUN (72 h, time 3 day) was 17 mg/dL. The CRE (72 h, time 3 day) was 0.4 mg/dL, the Ca (72 h, time 3 day) was 11 mg/dL and the Cl (72 h, time 3 day) was 105.8 meq/L. It also gave a DBIL (72 h, time 3 day) of 0.01 mg/dL, a GLC (72 h, time 3 day) of 186.2 mg/dL and an IP (72 h, time 3 day) of 7.9 mg/dL. The K (72 h, time 3 day) was 4.7 meq/L, the LDH (72 h, time 3 day) was 84 IU/L and the Na (72 h, time 3 day) was 139.4 meq/L. For the same compound, the PL (72 h, time 3 day) was 152.8 mg/dL, the RALB (72 h, time 3 day) was 4 g/dL and the TBIL (72 h, time 3 day) was 0.4 mg/dL. For the same compound, the TC (72 h, time 3 day) was 83.2 mg/dL, the TG (72 h, time 3 day) was 100.8 mg/dL and the TP (72 h, time 3 day) was 5.9 g/dL. It also gave a gamma-GTP (72 h, time 3 day) of 1.4 IU/L, a TERMINAL_BW ([…], time 7 day) of 246.4 g and a TERMINAL_BW ([…], time 14 day) of 298.5 g. It also gave a TERMINAL_BW ([…], time 28 day) of 364.6 g, an APTT ([…], time 7 day) of 15.6 s and a Bas ([…], time 7 day) of 0%. For the same compound, the Eos ([…], time 7 day) was 1%, the Fbg ([…], time 7 day) was 246.8 mg/dL and the Hb ([…], time 7 day) was 13.9 g/dL. It also gave a Ht ([…], time 7 day) of 42%, a Lym ([…], time 7 day) of 80% and an MCH ([…], time 7 day) of 21 pg. It also gave an MCHC ([…], time 7 day) of 33.3%, an MCV ([…], time 7 day) of 63.2 fL and a Mono ([…], time 7 day) of 7.4%. For the same compound, the Neu ([…], time 7 day) was 11.6%, the PT ([…], time 7 day) was 11.4 s and the Plat ([…], time 7 day) was 98.8 x10_4/uL. It also gave an RBC ([…], time 7 day) of 664.2 x10_4/ul, a Ret ([…], time 7 day) of 5.1% and a WBC ([…], time 7 day) of 103.8 x10_2/uL. For the same compound, the APTT ([…], time 14 day) was 16.4 s, the Bas ([…], time 14 day) was 0% and the Eos ([…], time 14 day) was 0.6%. It also gave a Fbg ([…], time 14 day) of 228.4 mg/dL, a Hb ([…], time 14 day) of 14.3 g/dL and a Ht ([…], time 14 day) of 42.9%. It also gave a Lym ([…], time 14 day) of 81.8%, an MCH ([…], time 14 day) of 20.3 pg and an MCHC ([…], time 14 day) of 33.2%. For the same compound, the MCV ([…], time 14 day) was 61.2 fL, the Mono ([…], time 14 day) was 5.8% and the Neu ([…], time 14 day) was 11.8%. For the same compound, the PT ([…], time 14 day) was 11.4 s, the Plat ([…], time 14 day) was 129.2 x10_4/uL and the RBC ([…], time 14 day) was 701.8 x10_4/ul. The Ret ([…], time 14 day) was 4.3%, the WBC ([…], time 14 day) was 127.6 x10_2/uL and the APTT ([…], time 28 day) was 16 s. The Bas ([…], time 28 day) was 0%, the Eos ([…], time 28 day) was 1% and the Fbg ([…], time 28 day) was 230.4 mg/dL. The Hb ([…], time 28 day) was 14.9 g/dL, the Ht ([…], time 28 day) was 44.4% and the Lym ([…], time 28 day) was 80%. The MCH ([…], time 28 day) was 19 pg, the MCHC ([…], time 28 day) was 33.5% and the MCV ([…], time 28 day) was 56.9 fL. The Mono ([…], time 28 day) was 7.6%, the Neu ([…], time 28 day) was 11.6% and the PT ([…], time 28 day) was 11.3 s. For the same compound, the Plat ([…], time 28 day) was 113.9 x10_4/uL, the RBC ([…], time 28 day) was 780.6 x10_4/ul and the Ret ([…], time 28 day) was 2.5%. It also gave a WBC ([…], time 28 day) of 145.6 x10_2/uL, a KIDNEY_L ([…], time 7 day) of 1 g and a KIDNEY_R ([…], time 7 day) of 1 g. It also gave a KIDNEY_TOTAL ([…], time 7 day) of 2 g, a KIDNEY_L ([…], time 14 day) of 1.2 g and a KIDNEY_R ([…], time 14 day) of 1.2 g. The KIDNEY_TOTAL ([…], time 14 day) was 2.5 g, the KIDNEY_L ([…], time 28 day) was 1.4 g and the KIDNEY_R ([…], time 28 day) was 1.4 g. It also gave a KIDNEY_TOTAL ([…], time 28 day) of 2.7 g, an LIVER ([…], time 7 day) of 13 g and an LIVER ([…], time 14 day) of 14.1 g. For the same compound, the LIVER ([…], time 28 day) was 16.6 g, the A/G ([…], time 7 day) was 1.7 and the ALP ([…], time 7 day) was 976.4 IU/L. For the same compound, the ALT ([…], time 7 day) was 47.2 IU/L, the AST ([…], time 7 day) was 85.8 IU/L and the BUN ([…], time 7 day) was 19.6 mg/dL. The CRE ([…], time 7 day) was 0.4 mg/dL, the Ca ([…], time 7 day) was 11.2 mg/dL and the Cl ([…], time 7 day) was 105.8 meq/L. It also gave a DBIL ([…], time 7 day) of 0.016 mg/dL, a GLC ([…], time 7 day) of 181.8 mg/dL and an IP ([…], time 7 day) of 7.7 mg/dL. For the same compound, the K ([…], time 7 day) was 4.6 meq/L, the LDH ([…], time 7 day) was 87 IU/L and the Na ([…], time 7 day) was 139.8 meq/L. The PL ([…], time 7 day) was 169.6 mg/dL, the RALB ([…], time 7 day) was 3.8 g/dL and the TBIL ([…], time 7 day) was 0.3 mg/dL. For the same compound, the TC ([…], time 7 day) was 98.8 mg/dL, the TG ([…], time 7 day) was 95.6 mg/dL and the TP ([…], time 7 day) was 6.1 g/dL. It also gave a gamma-GTP ([…], time 7 day) of 2.2 IU/L, an A/G ([…], time 14 day) of 2.1 and an ALP ([…], time 14 day) of 822.6 IU/L. The ALT ([…], time 14 day) was 36.2 IU/L, the AST ([…], time 14 day) was 66.8 IU/L and the BUN ([…], time 14 day) was 17.4 mg/dL. It also gave a CRE ([…], time 14 day) of 0.5 mg/dL, a Ca ([…], time 14 day) of 11.4 mg/dL and a Cl ([…], time 14 day) of 106.4 meq/L. The DBIL ([…], time 14 day) was 0.032 mg/dL, the GLC ([…], time 14 day) was 183.8 mg/dL and the IP ([…], time 14 day) was 7.3 mg/dL. It also gave a K ([…], time 14 day) of 4.6 meq/L, an LDH ([…], time 14 day) of 94.8 IU/L and a Na ([…], time 14 day) of 140.2 meq/L. It also gave a PL ([…], time 14 day) of 166 mg/dL, an RALB ([…], time 14 day) of 4.1 g/dL and a TBIL ([…], time 14 day) of 0.3 mg/dL. For the same compound, the TC ([…], time 14 day) was 77.2 mg/dL, the TG ([…], time 14 day) was 136 mg/dL and the TP ([…], time 14 day) was 6.1 g/dL. The gamma-GTP ([…], time 14 day) was 2.4 IU/L, the A/G ([…], time 28 day) was 1.7 and the ALP ([…], time 28 day) was 637.8 IU/L. For the same compound, the ALT ([…], time 28 day) was 61.4 IU/L, the AST ([…], time 28 day) was 115.8 IU/L and the BUN ([…], time 28 day) was 19.6 mg/dL. The CRE ([…], time 28 day) was 0.4 mg/dL, the Ca ([…], time 28 day) was 11.1 mg/dL and the Cl ([…], time 28 day) was 106.8 meq/L. For the same compound, the DBIL ([…], time 28 day) was 0.054 mg/dL, the GLC ([…], time 28 day) was 186.6 mg/dL and the IP ([…], time 28 day) was 6.3 mg/dL. For the same compound, the K ([…], time 28 day) was 4.5 meq/L, the LDH ([…], time 28 day) was 163 IU/L and the Na ([…], time 28 day) was 139.8 meq/L. It also gave a PL ([…], time 28 day) of 192.4 mg/dL, an RALB ([…], time 28 day) of 4.1 g/dL and a TBIL ([…], time 28 day) of 0.3 mg/dL. It also gave a TC ([…], time 28 day) of 106.6 mg/dL, a TG ([…], time 28 day) of 85.4 mg/dL and a TP ([…], time 28 day) of 6.5 g/dL. The gamma-GTP ([…], time 28 day) was 3.6 IU/L.
